Measurements: patent publication EP4810509A1, “INSECT NEUROPEPTIDES 7” (Solasta Bio Limited, priority 2022, dated 2024)

Experiments:
Format in all cases: in vivo
Myzus persicae aphids = experiment: Leaf dip assay (based on IRAC susceptibility test method 019), mortality assessment; conditions: unformulated, mortality assessed at 72, 96 and 120 hours, compared to negative control vehicle and Spirotetramat (Figures 6-8)
Protocol: The assay was carried out based on IRAC susceptibility test method 019 (https://irac-online.org/methods/aphids-adultnymphs/).
Fill a small 4 cm wide 3 cm high dish with a 1% agar treatment solution of the active chemical or control (ensuring 1 cm gap between the agar and the lid) and leave to set. Dip a 2.5 cm leaf disc into 3 ml of treatment solution allowing the treatment to coat the leaf. Leave the disc to dry for 1 hour and place onto the set agar. Place insects (Myzus persicae aphids) onto each of the leaf discs. Each unit is sealed with a close-fitting, ventilated lid. Place the agar dishes in a small plastic tray lined with moist tissue paper and ensure the water trays in the bottom of the incubator are filled with clean water and place within the incubator. An assessment of mortality is made at 72, 96 and 120 hours. Leaf dip assays were performed with SB-P-66, and compared to a negative control vehicle and a current commercial insecticide Spirotetramat. The activity of SB-P-66 is shown in Figures 6 and 7; SB-P-66 has good activity whilst being eco-friendly and targeted to specific pests unlike broad spectrum chemical insecticides such as Spirotetramat.

Bumblebee = experiment: Bee oral toxicity test (adapted from OECD Test No. 247: Bumblebee, Acute Oral Toxicity Test); conditions: % survival after 96 hours of application, compared with sucrose or vehicle and with Imidacloprid (Figure 9)
Protocol: Bee oral testing protocol was carried out adapted from OECD Test No. 247: Bumblebee, Acute Oral Toxicity Test. The toxicity of SB-P-66 was compared with a negative control of sucrose or vehicle, and with a current commercial insecticide Imidacloprid.

Aphis fabae = experiment: Field trials, naturally infested plants (PGRO, vining peas); conditions: unformulated, acting comparably to commercial insecticides (Figures 10, 13)
Protocol: (§1) A) and 16 days after second application (App.
(§2) Field trials for peptide SB-P-66, unformulated, against various insects were conducted by third-party organisations PGRO and AgriScience.

Aphis gossypii = experiment: Field trials, naturally infested plants (AgriScience, cotton and melon); conditions: unformulated, acting comparably to commercial insecticides (Figures 11, 12)
Protocol: as §1, §2

[1] = system: Amrasca biguttula (leaf hopper); experiment: Field trials, naturally infested plants; conditions: unformulated; over time; acting comparably to commercial insecticides (Figure 14)
Protocol: as §1, §2

Myzus persicae = experiment: Field trials; conditions: unformulated; acting comparably to commercial insecticides
Protocol: as §2

H-PAFSSWG-NH2 [SB-P-66, [Hy]-PAFSSWG-[NH2]]
activity against Myzus persicae (mortality) (Myzus persicae aphids): good activity | bee oral toxicity (% survival) (Bumblebee): far lower toxicity | efficacy in field trials against Aphis fabae (Aphis fabae): good efficacy | efficacy in field trials against Aphis gossypii (Aphis gossypii): good efficacy | efficacy in field trials against Amrasca biguttula [1]: good efficacy | efficacy in field trials against Myzus persicae (Myzus persicae): good efficacy
